From patent US20250073303A1, “TDP-43 Interference Peptides, Methods, and Uses Thereof” (The University of British Columbia, priority 2022, published 2025)

Legend:
SH-SY5Y cells = experiment: Stress granule (TIA-1) numbers in SH-SY5Y cells with sodium arsenite; assay type: cell-based, human; settings: 1 mM sodium arsenite 1 hour, TIA-1 staining, vs scramble
[1] = tested on: mice with LPS plus sciatic nerve axotomy; experiment: LPS (1 mg/kg daily) plus sciatic nerve axotomy in mice: microglia activation and motor neuron death; assay type: in vivo, mouse; settings: LPS 1 mg/kg daily i.p. plus axotomy
Experimental: FIG. 15: Example peptide D reduces microglia activation in lumbar spinal cord of mice with LPS plus sciatic nerve axotomy. Mice underwent LPS administration (1 mg/kg, daily, i.p.) plus sciatic nerve axotomy on day 0 and tissues were collected and fixed on day 7 post-surgery. Iba-1 staining of lumbar spinal cord of mice in each indicated group were counterstained with DAPI. 20 mg/kg of peptide D was injected daily through the i.p. route.
FIG. 16: Example peptide D prevents motor neuron death in ventral horn of spinal cord (L6) of mice with LPS plus sciatic nerve axotomy. Mice underwent LPS treatment (1 mg/kg, daily, i.p.) plus sciatic nerve axotomy on day 0 and tissue was collected and fixed on day 7 post-surgery. Markers of (A) ChAT staining (red) indicating motor neurons and (B) NeuN staining (green) counterstained with DAPI indicated alpha motor neurons in ventral horn of mice in each group. […]
Although neurodegeneration was detected in spinal cord of mice treated with a high dose of LPS (5 mg/kg, i.p.) plus sciatic nerve axotomy, motor neuron death was not observed in this model. […]
Since LPS causes systematic inflammation, microglia activation in ventral horn of spinal cord was first detected by staining with an Iba-1 antibody. […]

[2] = tested on: mice with LPS plus sciatic nerve axotomy; experiment: LPS (5 mg/kg) plus sciatic nerve axotomy in mice: Fluoro Jade C neurodegeneration staining; assay type: in vivo, mouse; settings: 20 mg/kg daily i.p., day 7
Experimental: FIG. 14: Example peptide D prevents neurodegeneration in ventral horn of spinal cord of mice with LPS plus sciatic nerve axotomy. Mice underwent LPS administration (5 mg/kg, i.p.) plus sciatic nerve axotomy on day 0 and tissues were collected and fixed on day 7 after the surgical procedure. Fluoro Jade (neurodegeneration marker) staining of ventral horn of spinal cord of mice in each indicated treatment group (upper panel) and counterstained with DAPI (lower panel). 20 mg/kg of peptide D was injected daily through i.p. route.
Neurodegeneration in the lumbar spinal cord of mice 7 days after administration of LPS plus surgery was then evaluated using Fluoro Jade C staining. Animals were divided into two peptide D treatment groups. In one group, peptide D administration started on the day of surgery, and in the other group, peptide D treatment started at 3 days post-surgery when the TDP-43 proteinopathies were at their maximum.

TDP-43 = TDP-43 (Mus musculus, UniProt Q921F2); experiment: LPS (5 mg/kg) plus sciatic nerve axotomy in mice: TDP-43 and phosphoTDP-43 aggregates; assay type: in vivo; design: from tissue; host or cells: ventral lumbosacral spinal cord of mice, axotomy side; settings: LPS 5 mg/kg i.p. plus axotomy, day 3 post-surgery, 10 and 20 mg/kg once daily i.p.
Chain of TDP-43 (Q921F2 whole entry): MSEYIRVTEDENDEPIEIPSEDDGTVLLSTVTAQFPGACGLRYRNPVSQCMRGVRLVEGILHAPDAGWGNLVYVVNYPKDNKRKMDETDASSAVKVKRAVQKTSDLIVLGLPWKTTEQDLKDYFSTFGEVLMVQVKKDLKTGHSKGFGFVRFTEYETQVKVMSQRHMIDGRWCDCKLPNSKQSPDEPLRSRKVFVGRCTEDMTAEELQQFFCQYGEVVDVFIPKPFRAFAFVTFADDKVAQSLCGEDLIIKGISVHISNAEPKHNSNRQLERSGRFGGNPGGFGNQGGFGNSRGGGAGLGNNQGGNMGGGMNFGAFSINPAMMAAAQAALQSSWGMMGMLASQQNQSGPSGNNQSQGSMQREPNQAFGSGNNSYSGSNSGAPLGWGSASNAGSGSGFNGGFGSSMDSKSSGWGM
Experimental: FIG. 13: Example peptide D dose dependently reduces TDP-43 and phosphoTDP-43 aggregates in lumbar spinal cord of mice with LPS plus sciatic nerve axotomy. Western blot analysis of TDP-43 and phosphoTDP-43 expression in the soluble and insoluble fraction of ipsilateral lumbar spinal cord tissue that was collected in mice three days post LPS (5 mg/kg) plus sciatic nerve axotomy procedure. Group 1: Non-surgical mice. Group 2: Control mice with LPS plus sciatic nerve axotomy. Group 3: 10 mg/kg of peptide D treatment (once daily, i.p.) in mice with LPS treatment plus sciatic nerve axotomy. Group 4: 20 mg/kg of peptide D treatment (once daily, i.p.) in mice with LPS treatment plus sciatic nerve axotomy.
This mouse model was further optimized by adding one dose of lipopolysaccharide (LPS) injection (5 mg/kg, i.p.) when performing surgery. LPS injection aggravated the observed TDP-43 proteinopathy as assessed at day 3 post-surgery.

Question: What does the source list for “peptide D: candidate peptide from a CK-1δ binding region for TDP-43, truncated HIV-1 TAT domain added at the N-terminal (YGRKKRRQRRRGFSYDYVFDWNMLK)”?
Answer: number of stress granules (SGs) induced by sodium arsenite (SH-SY5Y cells): reduced; general microglia activation in lumbar spinal cord (Iba-1) ([1]; day 7, 20 mg/kg daily i.p.): reduced; motor neuron death (ChAT and NeuN staining) ([1]; day 7 post-surgery): less motor neuron death; neurodegeneration in the ventral horn of spinal cord (Fluoro Jade C) ([2]; administration started on the day of surgery): less neurodegeneration; neurodegeneration in the ventral horn of spinal cord (Fluoro Jade C) ([2]; treatment started at 3 days post-surgery): less neurodegeneration; TDP-43 and phosphoTDP-43 aggregation (TDP-43): reduced TDP-43 and phosphoTDP-43 aggregation in a dose dependent manner
